In patent publication US20080003438A1, “Heterocyclic siloxanes for use in biocidal coatings and materials” (Auburn University, priority 2002, published 2008):
Values belong to the compound of their own block, whether it stands above or below them.

Tests used:
[1] = Chlorine loading of coated, chlorinated surfaces by iodometric/thiosulfate titration; format: physicochemical; settings: for chlorine content of charged textile: oven-cured; for chlorine loading on coated cotton swatches: chlorinated with 5% CLOROX at ambient temperature for 45 minutes
Experimental: Swatches of Style 400 Bleached 100% Cotton Print Cloth (Testfabrics, Inc.) were treated with 3-triethoxysilylpropyl-5,5-dimethylhydantoin, prepared as described in Example 1, in the following manner. A treatment bath was prepared containing 5.0 g of 3-triethoxysilylpropyl-5,5-dimethylhydantoin, 3.0 g of potassium thiocyanate, 50 mL of ethanol, and 50 mL of water. After 1 hour of equilibration of the bath mixture, the cotton swatches were soaked in the bath for 10 min. After partially drying in air at ambient temperature, the swatches were cured for 1 hour at 95° C. The swatches were then soaked in a 0.5% liquid detergent solution for 15 min, rinsed with tap water, and allowed to dry in air at ambient temperature. […] The swatches were stored in a vacuum desiccator until use.
The siloxane polymer described above was coated onto 100% cotton fabric. This was accomplished by soaking swatches of the material for about 2 minutes at ambient temperature in a bath containing 5 g of the polysiloxane, 70 mL of ethanol, and 40 mL of water. The swatches were cured at 130° C. in air for 20 minutes, then soaked in 1.5% liquid detergent for 15 minutes at ambient temperature, and then rinsed thoroughly with water. […] An iodometric/thiosulfate titration indicated a chlorine loading on the cotton material of about 0.42%.
Finally, a wash test was performed on swatches of cotton containing the monomer 3-triethoxysilylpropyl-5,5-dimethylhydantoin coating and the polysiloxane coating, each chlorinated and unchlorinated, for comparison purposes. Two treatment baths were prepared, one containing an 8% solution of 3-triethoxysilylpropyl-5,5-dimethylhydantoin in a 50% solution of ethanol in water, the other containing an 8% solution of siloxane polymer prepared as described above in a 66.7% solution of ethanol in water. Identical cotton swatches were soaked in the two baths for 2.5 minutes at ambient temperature, cured in air at 130° C. for 20 minutes, soaked in 1.5% liquid detergent at ambient temperature for 15 minutes, rinsed thoroughly with water, and dried in air at 50° C. for 30 minutes. Then one-half of the swatches of each type were chlorinated by soaking them in 5% CLOROX at ambient temperature for 45 minutes. These chlorinated samples were rinsed thoroughly with water and dried in air at 50° C. for 30 minutes to remove all occluded free chlorine. Iodometric/thiosulfate titrations were performed on representative samples to determine initial chlorine loadings. The average chlorine loading for the silane monomer-coated samples was 0.61%; for the siloxane polymer-coated samples, the average chlorine loading was 0.40%. Then all types of coated swatches were subjected to laundry washing cycles using AATCC Test Method 61 (Test 2A Procedure). Samples were evaluated after 5, 10, and 50 washing cycles for retention of the coatings. Those samples not chlorinated before washing were chlorinated by the procedure described above in order to assess how much chlorine could be loaded after variable numbers of washing cycles. Those chlorinated before washing were divided into two groups with half being assessed for chlorine loading without rechlorination, the other half being rechlorinated and then assessed for chlorine loading. Three observations are clearly evident from the data in Table 3. First, both the silane and the siloxane coatings are partially lost upon successive washings. Second, prechlorination reduces the rate of loss, probably due to increasing the hydrophobicity of the surface, thus reducing the rate of hydrolysis loss of the siloxane coatings. Third, the siloxane coating, which is not chlorinated to as high a level as the silane one upon initial chlorination, is lost at a slower rate than is the silane coating. For all of the coatings, at least partial biocidal efficacy would be regenerated upon rechlorination after 50 washing cycles. […]

Staphylococcus aureus = test: Antimicrobial activity of cotton textiles coated with acyclic silane; format: cell-based
Experimental: Cotton textiles were coated with 3-aminopropyltriethoxysilane by exposure to aqueous solutions of 5% of this compound, followed by curing the woven fabric at 100° C. for 60 minutes in air, or by use of a household dryer on high setting for 30 minutes. Swatches of the treated fabric were charged with chlorine, and then challenged with suspensions of Staphylococcus aureus; enumeration of recovery was accomplished using the methods described in Example 11. Chlorine contents of charged oven-cured textiles ranged up to 5000 ppm (5 mg per g of material) immediately after drying, but diminished to 2300 ppm in approximately 14 days at 20° C. Chlorine concentrations in dryer-prepared swatches were never higher than 2500 ppm, even when fresh. Reductions of viable organisms in freshly chlorinated oven-dried swatches were in excess of 4 logs, after as little as 15 minutes of contact. Longer contact times (30 minutes) were required to reach this level of efficacy in dryer-cured textiles.

[2] = system: S. aureus bacteria (ATCC 6538); test: Biocidal efficacy of chlorinated silane compound in water solution; format: cell-based; settings: 100.8 mg/L solution, 11.02 mg/L total chlorine, chlorine-demand-free water pH 7, all contact times 5, 10, 30, 60 min, ambient temperature
Experimental: A 100.8 mg/L solution of the chlorinated silane compound, prepared as described above, containing 11.02 mg/L total chlorine content in chlorine-demand-free water at pH 7 was challenged with S. aureus bacteria (ATCC 6538) for contact times of 5, 10, 30, and 60 min at ambient temperature. Following the contact with the bacteria, further disinfectant action was quenched by adding 0.02 N sodium thiosulfate. Serial dilutions were then plated onto trypticase soy agar, and colony counts were made after 48 hours of incubation at 37° C. No growth was detected on the plates indicating a complete inactivation (>4.9 logs) at all of the contact times. Thus the chlorinated silane compound is biocidal under the conditions tested. Neither lower contact times, nor lower concentrations, were evaluated.

[3] = system: Escherichia coli (ATCC 2666); test: Challenge of treated cotton swatches, modified AATCC Method 100; format: cell-based; settings: contact time interval 60-120 minutes
Experimental: (§1) Treated cotton swatches were challenged with S. aureus (ATCC 6538) and Escherichia coli (ATCC 2666) at a concentration of between 10^8 and 10^9 CFU/mL in pH 7 phosphate buffer solution using a modified version of AATCC Method 100. The swatches were quenched with 0.02 N sodium thiosulfate solution at contact times of 10, 30, 60, and 120 min. Serial dilutions of the solutions contacting the swatches were plated on nutrient agar, incubated for 48 hours at 37° C., and plate counts were made to determine the presence of viable bacteria. […] The control sample (cotton soaked in 10% bleach, rinsed, and dried) gave only a 0.4 log reduction at 30 minutes. […] The control sample (cotton soaked in 10% bleach, rinsed, and dried) gave a 0 log reduction at 120 minutes.

S. aureus (ATCC 6538) = test: as above; format: cell-based; settings: treated cotton swatches, at 30 minutes
Experimental: as §1

Structure (SMILES): CCO[Si](CCCN)(OCC)OCC [3-aminopropyltriethoxysilane]
- chlorine concentration of charged textile ([1]; cotton, dryer-prepared swatches, even when fresh): ≤ 2500 ppm
- chlorine content of charged textile ([1]; cotton, after approximately 14 days at 20° C.): 2300 ppm
- chlorine content of charged textile ([1]; cotton, immediately after drying): up to 5000 ppm
- contact time required to reach in excess of 4 logs reduction (Staphylococcus aureus; dryer-cured cotton textiles): 30 minutes
- reduction of viable organisms (Staphylococcus aureus; freshly chlorinated oven-dried cotton swatches, 15 minutes of contact): > 4 logs

Structure (SMILES): CCO[Si](CCCN1C(=O)C(C)(C)NC1(C)C)(OCC)OCC [3-triethoxysilylpropyl-2,2,5,5-tetramethylimidazolidin-4-one]
- chlorine loading on coated cotton swatches ([1]; cotton): 0.114%

Structure (SMILES): CO[Si](CCCN1C(=O)N(Cl)C(C)(C)C1=O)(OC)OC [chlorinated silane compound, 1-chloro-3-trimethoxysilylpropyl-5,5-dimethylhydantoin]
- complete inactivation of S. aureus [2]: > 4.9 logs

Structure (SMILES): CCO[Si](C)(CCCN1C(=O)NC(C)(C)C1=O)OCC [3-diethoxymethylsilylpropyl-5,5-dimethylhydantoin]
- chlorine loading on coated cotton swatches ([1]; cotton): 0.733%

- chlorine loading ([1]; cotton swatches, 5% CLOROX 5 minutes): 0.44%
- chlorine loading ([1]; sand (Ottawa Sand Standard, 20-30 mesh), 50% CLOROX 15 minutes): 0.11%
Structure (SMILES): CCO[Si](CCCNCCN1C(=O)NC(C)(C)C1=O)(OCC)OCC.Cl [3-[2′-(3′-triethoxysilylpropyl)aminoethyl]-5,5-dimethylhydantoin hydrochloride]

Structure (SMILES): CCCCCCCCCCCCCCCCCC[N+](C)(C)CCC[Si](OC)(OC)OC.[Cl-] [quaternary ammonium salt, dimethyloctadecyltrimethoxysilylpropylammonium chloride, reference compound]
- log reduction of E. coli [3]: 2.5 logs
- log reduction of S. aureus (S. aureus (ATCC 6538)): 1.8 log
